Results on 18 molecules are retold here after patent publication US5187195A, “Anthraquinone derivatives and preparation thereof” (Fujisawa Pharmaceutical Co., Ltd., priority 1989, dated 1993).

Data set [1] deals with T1, crude receptor membrane fractions of porcine aorta (^125 I-endothelin binding) (Sus scrofa, UniProt Q29010).
T1 construct: tissue Pel-Freez Biologicals (U.S.A.); host or cells: porcine aorta, crude membrane fractions
T1 sequence (Q29010 21-427): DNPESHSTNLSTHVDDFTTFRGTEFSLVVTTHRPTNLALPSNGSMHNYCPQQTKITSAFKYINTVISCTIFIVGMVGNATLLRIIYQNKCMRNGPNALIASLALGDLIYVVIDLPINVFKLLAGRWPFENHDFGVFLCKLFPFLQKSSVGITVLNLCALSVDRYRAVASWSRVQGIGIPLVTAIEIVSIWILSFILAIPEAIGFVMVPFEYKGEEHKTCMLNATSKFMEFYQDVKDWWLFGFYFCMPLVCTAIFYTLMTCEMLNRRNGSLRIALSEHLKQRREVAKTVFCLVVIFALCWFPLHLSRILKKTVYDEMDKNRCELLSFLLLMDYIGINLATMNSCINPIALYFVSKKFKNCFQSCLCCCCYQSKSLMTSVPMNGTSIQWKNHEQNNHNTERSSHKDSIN
The data set is described as follows: Radioligand binding assay (^125 I-Endothelin binding to porcine aorta membrane fractions). Particulars: for IC50: concentration required to compete with ^125 I-endothelin (1.67×10^-11 M) for binding to porcine aorta membrane fractions by 50%, 60 minutes, room temperature, pH 7.5. The protocol: Radioligand Binding Assay
(a) Preparation of crude receptor membrane fractions
Porcine aorta was purchased from Pel-Freez Biologicals (U.S.A.) and stored at -80° C. until use.
Porcine aorta (50 g) was thawed and dissected free from fatty tissue, minced with scissors and then homogenized with a polytron (Brinkmann PT-20, maximal speed for 3×10 sec) in 100 ml buffer (0.25 M sucrose, 10 mM Tris-HCl, 0.1 mM EDTA, pH 7.5).
The homogenate was centrifuged at 10,000 g for 20 minutes at 4° C.
The supernatant, containing the plasma membrane fraction, was centrifuged at 100,000 g for 60 minutes at 4° C., and then resultant pellets were referred to as crude membrane fractions.
The pellets were resuspended in 25 ml of binding assay buffer (50 mM Tris-HCl, 100 mM NaCl, 5 mM MgCl2, 1.5 μg/ml phenylmethylsulfonyl fluoride (PMSF), 120 μg/ml bacitracin, 12 μg/ml leupepcin, 6 μg/ml chymostain, 0.1% bovine serum albumin (BSA), pH 7.5)
The aorta membrane fractions were stored at -80° C. until use.
(b) ^125 I-Endothelin Binding Assay
^125 I-Endothelin (1.67×10^-11 M) (Amersham Japan, specific activity: 2000 Ci/m mol) was incubated with 50 μl of the aorta membrane fractions in binding assay buffer at room temperature (20°-22° C.) for 60 minutes in a final volume of 250 μl.
After incubation, the incubation mixture were filtered through Glass-fiber GF/C filter (pretreated with 0.1% polyethylene imine for 3 hours prior to use) using cell harvester (Brandel M-245). The filters were then washed ten times with a total of 3 ml of the washing buffer (50 mM Tris-HCl, pH 7.5) at 0° C. The filters were counted in a gamma counter (Packard Auto Gamma Model 5650).
The activity of test compounds was expressed as IC50 value, i.e. concentration required to compete with ^125 I-endothelin for binding to prorcine aorta membrane fractions by 50%.

Another data set in a line: Solubility. The format is physicochemical.
For data set [2], the system named is contraction response of rabbit thoracic aorta induced by endothelin. Description: Effect on rabbit aorta contraction response of endothelin (isolated strips). More on the design: species or system rabbit (male albino). As to conditions: Oryctolagus cuniculus, endothelin 3.2×10^-9 M, % inhibition of maximum contraction, compound added after full contraction; for inhibition at 100 µM: 1 × 10^-4 M; for inhibition at 10 µM: 1 × 10^-5 M. On the procedure: Effect of FR901366 Substance and FR901367 Substance on Rabbit Aorta of Contraction Response of Endothelin
Thoracic aorta were isolated from freshly killed male albino rabbits (11 weeks old) and cut into 25 mm strips with the intima denuded. After removing fatty tissues, these arterial segments (2 mm width and 25 mm length) were suspended in 25 ml organ chambers filled with Krebs-Ringer solution (113 mM NaCl, 4.8 mM KCl, 2.2 mM CaCl2, 1.2 mM MgCl2, 25 mM NaHCO3, 1.2 mM KH2 PO4, 5.5 mM glucose) maintained at 37° C. and gassed with 95% O2 /5% CO2.
A preload of 1 g was applied after the aorta had been conditioned by application of increasing concentration of KCl. Contractions were measured as an increase in isometric tension.
The test compound was tested against contraction response of endothelin (3.2×10^-9 M). Synthetic endothelin was obtained from Peptide Institute Inc. (Osaka, Japan). The test compound substance was added after the full contraction response induced endothelin.
The activity of the test compounds is expressed as the percentage inhibition of maximum contraction response induced by endothelin and shown in Table 7.

Data set [3] concerns endothelin induced pressor response. The data set is described as follows: In vivo pressor effect in conscious rats (inhibition of endothelin induced pressor response). More on the design: species or system rat (male Wister). As to conditions: 10 mg/kg i.v., 3 minutes before endothelin 2.4 μg/kg i.v., three rats. The protocol:
Assay of In Vivo Pressor Effect in Conscious Rats
Male Wister rats (10 weeks old) were used. The mean arterial blood pressure was recorded from femoral artery via polyethylene catheter connected to the pressure transducer which was coupled to a Biophysiograph 180 system (Nihondenki-San-Ei Instrument Co., Ltd.).
FR901366 substance and endothelin were dissolved in saline and injected in bolus (0.2 ml) through polyethylene cateter inserted via femoral vein.
FR901366 substance was administered 3 minutes before the injection of endothelin. Inhibitory activity of FR90136 substance (10 mg/kg, i. v.) against endothelin (2.4 μg/kg, i. v.) induced pressor response was evaluated with a group of three rats and shown in Table 8.

Broadly, the IC50 is the concentration needed to halve the response being measured. Read a high IC50 as weaker potency in that assay. `COC(=O)C(CSC12C(=O)c3c(O)cccc3C(=O)C1(O)C1(O)C(=O)C=C(C)CC1(O)CC2O)NC(C)=O` (centres unmarked) [FR129795] gave an IC50 in data set [1] of 2.73 µM. This lies in the single-digit micromolar range.

Regarding `COC(=O)C(CSC12C(=O)c3c(O)cccc3C(=O)C1(O)C1(O)C(=O)C=C(C)CC1(O)CC2OC(C)=O)NC(C)=O` (centres unmarked) [FR129796], the IC50 in data set [1] is 13.5 µM.

For `COC(=O)C(CSC12C(=O)c3c(OC(C)=O)cccc3C(=O)C1(O)C1(O)C(=O)C=C(C)CC1(O)CC2OC(C)=O)NC(C)=O` (centres unmarked) [FR129797], the IC50 in data set [1] was 10.3 µM.

As for `CC1=CC(=O)C2(O)C(O)(CCC3(SCC(N)C(=O)O)C(=O)c4c(O)cccc4C(=O)C32O)C1` (centres unmarked) [FR131132], the IC50 in data set [1] was 147 µM. The Solubility result in the data set “Solubility” (chloroform) was “insoluble”; in the data set “Solubility” (ethanol) it was “sparingly soluble”; in the data set “Solubility” (methanol), “sparingly soluble”; in “Solubility” (n-hexane) it was “insoluble”; in “Solubility” (water) it was “sparingly soluble”.

With `CC1=CC(=O)C2(O)C(O)(CCC3(SCC(NC(=O)c4ccccc4)C(=O)O)C(=O)c4c(O)cccc4C(=O)C32O)C1` (centres unmarked) [FR131661], the concentration for half-maximal inhibition (IC50) in data set [1] is 22 µM.

In the case of `CC1=CC(=O)C2(O)C(O)(CCC3(SCC(NC(=O)OC(C)(C)C)C(=O)O)C(=O)c4c(O)cccc4C(=O)C32O)C1` (centres unmarked) [FR131662], the IC50 in data set [1] was 4.33 µM.

As for `CC1=CC(=O)C2(O)C(O)(CCC3(SCC(NC(=O)Cc4ccc(Cl)cc4)C(=O)O)C(=O)c4c(O)cccc4C(=O)C32O)C1` (centres unmarked) [FR131663], the IC50 in data set [1] was 38.7 µM.

The molecule `CC1=CC(=O)C2(O)C(O)(CCC3(SCC(NC(=O)C(C)C)C(=O)O)C(=O)c4c(O)cccc4C(=O)C32O)C1` (centres unmarked) [FR131667] had an IC50 in data set [1] of 106 µM.

As to `CCCCCC(=O)NC(CSC12CCC3(O)CC(C)=CC(=O)C3(O)C1(O)C(=O)c1cccc(O)c1C2=O)C(=O)O` (centres unmarked) [FR131668], the IC50 in data set [1] was 17 µM.

Regarding `COC(=O)C(CSC12CCC3(O)CC(C)=CC(=O)C3(O)C1(O)C(=O)c1cccc(O)c1C2=O)NC(C)=O` (centres unmarked) [FR134624], the IC50 in data set [1] was 10.5 µM.

In data set [1], `COC(=O)C(CSC12CCC3(OC(C)=O)CC(C)=CC(=O)C3(OC(C)=O)C1(OC(C)=O)C(=O)c1cccc(OC(C)=O)c1C2=O)NC(C)=O` (centres unmarked) [FR134625] had a half-inhibitory concentration (IC50) of 356 µM.

`CC(=O)NC(CSC12CCC3(O)CC(C)=CC(=O)C3(O)C1(O)C(=O)c1cccc(O)c1C2=O)C(=O)NCCO` (centres unmarked) [FR134761]: the IC50 in data set [1] was 10.3 µM. This IC50 lies about 35-fold lower than the previous one.

With `COC(=O)[C@H](Cc1c[nH]c2ccccc12)NC(=O)C(CSC12CCC3(O)CC(C)=CC(=O)C3(O)C1(O)C(=O)c1cccc(O)c1C2=O)NC(C)=O` (some centres unmarked) [FR134762], in data set [1], the IC50 is 11.9 µM.

As for `CC[C@H](C)[C@H](NC(=O)C(CSC12CCC3(O)CC(C)=CC(=O)C3(O)C1(O)C(=O)c1cccc(O)c1C2=O)NC(C)=O)C(=O)N[C@@H](Cc1c[nH]c2ccccc12)C(=O)OC` (some centres unmarked) [FR134763], the concentration for half-maximal inhibition (IC50) in data set [1] is 37.2 µM.

For the molecule `CC[C@H](C)[C@H](NC(=O)C(CSC12CCC3(O)CC(C)=CC(=O)C3(O)C1(O)C(=O)c1cccc(O)c1C2=O)NC(C)=O)C(=O)N[C@@H](Cc1c[nH]c2ccccc12)C(=O)O` (some centres unmarked) [FR134764], in data set [1], the IC50 was 12 µM. Compared with the last molecule, the IC50 is about 3.1-fold lower.

Molecule `CC1=CC(=O)C2(O)C(O)(C1)CC(O)C1(SCC(N)C(=O)O)C(=O)c3c(O)cccc3C(=O)C12O` (centres unmarked) [FR134851] showed an IC50 in data set [1] of 20.7 µM. The Solubility entry is recorded as “insoluble” in the data set “Solubility” (chloroform); “soluble” in the data set “Solubility” (ethanol); “soluble” in “Solubility” (methanol); “insoluble” in “Solubility” (n-hexane); “sparingly soluble” in “Solubility” (water).

A word on the inhibition: it is the change of the read-out against control, counted positive when it falls. High values mean a strong effect, low ones a weak effect. In the case of `CC(=O)NC(CSC12CCC3(O)CC(C)=CC(=O)C3(O)C1(O)C(=O)c1cccc(O)c1C2=O)C(=O)O` (centres unmarked) [FR901366], 100 µM produced 39% inhibition in data set [2]. Besides, the inhibition at 10 µM in data set [2] was 15%. The concentration for half-maximal inhibition (IC50) in data set [1] is 5.97 µM. In addition, the “Inhibition of endothelin pressor response” value was found to be 27.2% in data set [3] (5 min after administration); 50.0% in data set [3] (10 min after administration); 63.3% in data set [3] (20 min after administration); 53.8% in data set [3] (30 min after administration); 66.6% in data set [3] (60 min after administration); 50.0% in data set [3] (120 min after administration). The Solubility result is “soluble” in the data set “Solubility” (acetone); “sparingly soluble” in the data set “Solubility” (chloroform); “insoluble” in “Solubility” (hexane); “soluble” in the data set “Solubility” (methanol); “insoluble” in the data set “Solubility” (water).

Consider `CC(=O)NC(CSC12C(=O)c3c(O)cccc3C(=O)C1(O)C1(O)C(=O)C=C(C)CC1(O)CC2O)C(=O)O` (centres unmarked) [FR901367], for which the inhibition at 100 µM in data set [2] stood at 75%. Further, 10 µM produced 38.6% inhibition in data set [2]. In data set [1], this molecule had a 50% inhibitory concentration (IC50) of 0.672 µM. The “competition with ^125 I-endothelin for binding to porcine aorta membrane fractions” value in data set [1] (result in words) is on record as “competes with ^125 I-endothelin for binding”. For the same molecule, the Solubility result is on record as “sparingly soluble” in the data set “Solubility” (acetone); “soluble” in “Solubility” (ethanol); “sparingly soluble” in “Solubility” (ethyl acetate); “soluble” in the data set “Solubility” (methanol); “insoluble” in the data set “Solubility” (n-hexane); “sparingly soluble” in “Solubility” (water).
